Measurements taken from PubChem BioAssay (NCI).
Values joined by “and” are separate entries in the source; they are usually repeats but may differ in a detail not shown here. Identical values can stand only once.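 Compound exposure: 48 hours, 5 concentrations, 96-well plates. GI50: concentration for 50% inhibition of growth. TGI: total growth inhibition.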

How the values were obtained:
Assay in all cases: NCI tumour cell line growth inhibition, 48 h
HCT-116 colon = system: HCT-116 colon
HCT-15 colon = system: HCT-15 colon
IGROV1 ovarian = system: IGROV1 ovarian
RXF 393 renal = system: RXF 393 renal
SF-268 CNS = system: SF-268 CNS
SK-MEL-2 melanoma = system: SK-MEL-2 melanoma
SR leukemia = system: SR leukemia
TK-10 renal = system: TK-10 renal

Structure (SMILES)	GI50 (HCT-116 colon)	TGI (HCT-116 colon)	GI50 (HCT-15 colon) [µM]	TGI (HCT-15 colon) [µM]	GI50 (IGROV1 ovarian)	TGI (IGROV1 ovarian)	GI50 (RXF 393 renal)	TGI (RXF 393 renal)	GI50 (SF-268 CNS)	TGI (SF-268 CNS)	GI50 (SK-MEL-2 melanoma) [µM]	TGI (SK-MEL-2 melanoma) [µM]	GI50 (SR leukemia)	TGI (SR leukemia)	GI50 (TK-10 renal)	TGI (TK-10 renal)
O=C(OCc1ccccc1)N1CCN(/[N+]([O-])=N/Oc2ccc([N+](=O)[O-])cc2[N+](=O)[O-])CC1	2.15 µM	7.55 µM	4.19	52.6	2.01 µM	23.2 µM	29.2 µM	56.5 µM	6.28 µM	23.9 µM	19.1	57	4.7 µM	> 100 µM	17.6 µM	33.4 µM
O=C(O)C1C(C(=O)Nc2ccc3c(c2)Cc2ccccc2-3)C2(Cl)C(Cl)=C(Cl)C1(Cl)C2(Cl)Cl (stereo not given)	–	38.1 µM	–	48.5	–	44.4 µM	–	43.1 µM	–	64.5 µM	–	36.2	–	–	–	68.1 µM
CCCCCC(O)C1C(=O)OC(C)C(O)/C=C/C=C/C=C/C=C\C=C(\C)C(O)CC(O)CC(O)CC(O)CC(O)CC(O)CC1O (stereo not given)	> 100 µM	> 100 µM	> 100	> 100	> 100 µM	> 100 µM	> 100 µM	> 100 µM	> 100 µM	> 100 µM	> 100	> 100	> 100 µM	> 100 µM	> 100 µM	> 100 µM
Cc1ccc(C2NC(=S)NC3=C2CCOc2c3ccc3ccccc23)cc1 (stereo not given)	> 100 µM	> 100 µM	> 100	> 100	–	–	4.83 µM	> 100 µM	96 µM	> 100 µM	> 100	> 100	–	–	> 100 µM	> 100 µM
ClC1=C(Cl)C(Cl)=C(Cl)C1=C/C=C/c1ccccc1	0.213 µM	0.457 µM	0.179	0.391	–	0.0455 µM	0.186 µM	0.36 µM	0.261 µM	1.51 µM	0.256	0.678	0.138 µM	–	0.562 µM	2.04 µM
CCN(CC)c1cc(/C=C/c2ccc(OC)c(OC)c2)nc2cc(F)c(F)cc12	5.35 µM	17.5 µM	22.8	> 100	3.46 µM	12 µM	1.8 µM	4.01 µM	3.15 µM	11.4 µM	1.83	3.45	3.15 µM	12.3 µM	2.99 µM	8.75 µM
N#Cc1c(-c2ccc(Cl)cc2)n(O)c2ccccc12	2.29 µM	8.69 µM	1.8	18.9	3.15 µM	8.52 µM	1.8 µM	5.84 µM	2.6 µM	25.5 µM	1.46	5.46	–	–	3.64 µM	9.16 µM
COc1ccc(Nn2c(SCC(=O)Nc3nc(-c4ccc(Cl)cc4)cs3)nc(C)c2C)cc1	2.12 µM	14.1 µM	4.79	> 100	5.67 µM	> 100 µM	3.53 µM	9.64 µM	2.81 µM	> 100 µM	15.7	66.8	7.02 µM	> 100 µM	14.8 µM	80.9 µM
NC(=O)C1=NNc2ccccc2C(=O)N1c1ccccc1	–	> 100 µM	–	> 100	–	> 100 µM	–	> 100 µM	–	> 100 µM	–	> 100	–	> 100 µM	–	> 100 µM
CCCCCCCC/C=C/CCCCCCCCC1=NCCN1CCO	–	–	2.42	7.58	2.58 µM	6.19 µM	3.88 µM	19.6 µM	3.66 µM	16.2 µM	11.9	25.1	1.9 µM	4.95 µM	12.6 µM	26.7 µM
COc1ccc(NC(=O)n2nc(N)c3ccccc32)cc1OC	43.5 µM	> 100 µM	44.1	> 100	18.1 µM	84 µM	95.2 µM	> 100 µM	49.6 µM	> 100 µM	37.2	> 100	29.3 µM	> 100 µM	92.4 µM	> 100 µM
CCC(C)n1cc(C)c2c(C(=O)NCc3c(C)cc(C)[nH]c3=O)cc(Br)cc21 (stereo not given)	48 µM	> 100 µM	29	> 100	> 100 µM	> 100 µM	27.6 µM	> 100 µM	72.3 µM	> 100 µM	35.9	> 100	32.9 µM	> 100 µM	> 100 µM	> 100 µM
NC(CSC(c1ccccc1)(c1ccccc1)c1ccc(Cl)cc1)C(=O)O (stereo not given)	0.0476 µM	11.2 µM	0.362	52.9	0.355 µM	34.1 µM	0.0594 µM	4.52 µM	0.399 µM	26.5 µM	0.239	5.07	0.121 µM	5.93 µM	13.5 µM	64.7 µM
OCCCN=NNc1ccc(-c2nc3ccccc3[nH]2)cc1	–	–	4.43	> 100	5.26 µM	45.8 µM	4.06 µM	18 µM	6.16 µM	32.1 µM	14.5	48.1	29.9 µM	> 100 µM	31.9 µM	82.5 µM
COc1ccccc1-n1c(-c2cc(O)ccc2C)cn2c3c(=O)[nH]c(=O)n(C)c3nc12	21.1 µM	> 100 µM	54.7	> 100	3.52 µM	13.9 µM	0.872 µM	4.11 µM	5.07 µM	> 100 µM	> 100	> 100	66 µM	> 100 µM	13.3 µM	48.7 µM
CC1/C=C/C=C/C=C/C=C/C=C/C=C/C=C/C(O[C@@H]2O[C@H](C)[C@H](O)[C@@H](O)[C@@H]2N)CC(O)C(C(=O)O)C(O)CC(=O)CC(O)CC(O)CC(O)CC(=O)CCCC(=O)CC(=O)OC1C(C)CC(C)C(O)CC(=O)c1ccc(N)cc1 (stereo not given in full)	0.0581 µM and 0.219 µM	0.103 µM and 0.485 µM	–	–	0.0598 µM and 0.226 µM	0.116 µM and 0.536 µM	0.0469 µM and 0.156 µM	0.0894 µM and 0.304 µM	0.0565 µM and 0.202 µM	0.102 µM and 0.409 µM	0.267	0.813	0.0835 µM and 0.168 µM	0.254 µM and 0.422 µM	0.0573 µM and 0.315 µM	0.104 µM and 0.983 µM
